Marks after values point to notes of the source that are not given here.
How the values were obtained:
HRP-Goat A'Mouse IgG = experiment: Enzymatic determination of protein binding to coated medium binding polystyrene plate; conditions: coated medium binding PS; versus uncoated high binding polystyrene plate; absorbance 405 nm
Protocol: The surfactants were coated onto a medium binding polystyrene plate (Corning Costar No. 2587) as described in Material and Methods. A medium binding polystyrene plate (Corning Costar No. 2587) and a high binding polystyrene plate (Corning Costar No. 2581) were used as controls.
(a) HRP-Goat A'Mouse IgG: Kirkegaard & Perry Laboratories, Inc. Catalog No. 074-1806. Stock solution: 0.5 mg/ml; working concentration: 0.04 μg/ml. The working concentration was obtained by adding 11 μl of the stock solution per 25 mls of PBS pH 7.4 to produce a work stock (WS), and then diluting 1:6 (i.e., 10 mls WS+50 mls PBS pH 7.4).
(1) 100 μl-well of HRP-Goat A'Mouse IgG at a concentration of 0.04 μg/ml were added to the test wells and incubated for 1 hour at room temperature.
(2) The wells were then washed 5 times with the 1M wash solution. Each wash include a 5 minute soak followed by decanting.
(3) 100 μl/well of substrate (30 mls ABTS+30 mls H2O2) were added to the test wells and incubated for 15 minutes at room temperature in the dark.
(4) 100 μl/well of stopping solution (1% SDS) were added to the test wells.
(5) The plates were then shaken and read at 405 nm.
(6) Reduction in binding was determined by comparing the absorbance measured in step (5) with the absorbance measured for a high binding polystyrene plate which had not been treated with a non-ionic surfactant but otherwise subjected to steps (1) to (5).

Horse IgG = experiment: Protein binding by colloidal gold staining, coated medium binding polystyrene plates; conditions: coated medium binding PS; IgG 10 μg/ml, pH 9.4
Protocol: Except where indicated, the non-ionic surfactants were applied to the hydrophobic surfaces being tested as a 0.1% (weight/volume) solution in isopropanol. A sufficient amount of coating solution was used to cover the surface being testing with a thin layer of the solution (e.g., 25 μl of the solution per well for a standard 24-well plate). In some cases, the solution was applied to surface by spraying; in others, it was poured onto the surface (into the well). Except where indicated, coated samples were either dried at 70° C. for 30 minutes in an air circulated oven or dried at room temperature overnight to evaporate the isopropanol.
Protein binding was determined in some examples using a colloidal gold straining procedure. In accordance with this procedure, colloidal gold becomes electrostatically attached to bound protein and is detected by measuring absorbance at 550 nanometers. Bio-Rad Laboratories' Colloidal Gold Total Protein Stain was used for this purpose, with absorbance being measured with a Cambridge Technologies Plate Reader (No. 7520).
The surfactants were coated onto medium binding polystyrene plates (Corning Costar No. 2587) as described in Material and Methods.
The plates were incubated with IgG as follows: 0.1 ml of Horse IgG (Pierce Labs) at a working concentration of 10 μg/ml in 0.10M NaHCO3 buffer (pH9.4) were added to each well, incubated 30 minutes on a rocker table, and rinsed with dI H2O. The plates were gold stained overnight (0.3 ml/well), rinsed in dI H2O, air dried, and absorbance was measured at 550 nm.

[1] = tested on: BSA protein (Bovine Serum Albumin, Fraction V); experiment: BSA binding to coated polystyrene 24-well plates at different pH, colloidal gold stain; conditions: for Absorbance (550 nm) pH = 9.2: BSA 10 μg/ml in 0.10 M NaHCO3 buffer; for Absorbance (550 nm) pH = 7.4: BSA 10 μg/ml in 0.10 M PBS; for Absorbance (550 nm) pH = 4.6: BSA 10 μg/ml in 0.10 M acetate buffer
Protocol: Polystyrene plates having 24 wells (Corning Costar #9447) were coated as described in Materials and Methods.
BSA protein (Bovine Serum Albumin, Fraction V, Sigma) was prepared at 10 μg/ml in 0.10 M acetate buffer (pH=4.6), in 0.10 M PBS (pH=7.4), and in 0.10 M NaHCO3 buffer (pH=9.2). Wells of each coated plate, along with uncoated controls, were aliquoted 0.50 ml each of the protein solutions. The samples were run in triplicate.
The plates were placed on a rocker table for 30 minutes at 23° C. The protein solutions were then emptied from the plates, and the wells were rinsed three times with dl H2O. Thereafter, 1.0 ml of colloidal gold stain was added to each well (see Materials and Methods). The plates were placed on a rocker table overnight, rinsed three times with dI H2O, and air dried. Absorbance at 550 nm was then read using the Cambridge Technologies Plate Reader.

IgG [2] = experiment: Coating durability using water washes, IgG binding by colloidal gold; conditions: for Absorbance (550 nm) Initial: coated polystyrene, no water wash; for Absorbance (550 nm) 1 Time 1 hr 23° C. / Absorbance (550 nm) 1 Time 24 hr 23° C. / Absorbance (550 nm) 1 Time 24 hr 37° C. / Absorbance (550 nm) 1 Time 24 hr 70° C.: dI H2O wash 1 time; for Absorbance (550 nm) 6 Times 30 min each 23° C.: dI H2O wash 6 times
Protocol: Polystyrene plates having 24 wells (Corning Costar #9447) were coated with these surfactants as described in Materials and Methods. Durability was tested by adding dI H2O to the wells of a test plate (3.0 mls/well), following which the plate was placed on a rocker table. […] The protein solution was incubated with the plate on a rocker table for 30 minutes at 23° C., following which the plate was H2O rinse 3× (3 mls each time). The colloidal gold staining procedure described above was used to reveal bound protein. The staining comprised an overnight incubation on a rocker table at 23° C., a dI H2O rinse, drying at room temperature, and reading at 550 nm.

BSA = experiment: Polymer blends molded into petri dishes, BSA binding by colloidal gold; conditions: blended at 5% into polypropylene; silver enhancer
Protocol: (§1) Low binding non-ionic surfactant molecules were blended at 5% (except as noted in Table 13) into a base polymer using a twin screw extruder, then injection molded into the shape of 35 mm petri dishes. Proteins tested were BSA and Fetal Bovine Serum (FBS). Protein binding was determined using a colloidal gold staining procedure as described above. In the case of the polypropylene and EVA blends, a silver enhancer was used (Sigma Chem. Co., St, Louis, Mo., Kit #SE-100).

Fetal Bovine Serum (FBS) = experiment: Polymer blends molded into petri dishes, FBS protein binding by colloidal gold; conditions: blended at 5% into polypropylene; silver enhancer
Protocol: as §1

[3] = tested on: ^125I-IgG (goat anti-mouse); experiment: Radiometric determination of IgG binding to surfactant-coated polystyrene microtiter wells; conditions: for Total IgG binding, Non-Sterilized: coated polystyrene wells; for Total IgG binding, Non-Sterilized / Tight IgG binding, Non-Sterilized: not sterilized; for Total IgG binding, Non-Sterilized / Total IgG binding, Sterilized: after three PBS washes; for Tight IgG binding, Non-Sterilized / Tight IgG binding, Sterilized: after two hours in PBS-Tween (0.05%); for Total IgG binding, Sterilized / Tight IgG binding, Sterilized: gamma sterilized (1.5 Mrad)
Protocol: The hydrophobic surfaces used were flat bottom microtiter plates composed of high binding polystyrene (Corning Costar No. 2581) and medium binding polystyrene (Corning Costar No. 2587). Testing was performed with and without gamma radiation sterilization using cobalt 60 (1.5 Mrad).
The surfactants were applied to the test plates as described in Materials and Methods, followed by sterilization where indicated.
Levels of protein binding were determined using a radiolabeled protein, namely, ^125I-IgG (goat anti-mouse) purchased from DuPont/NEN. Unlabeled IgG in sodium carbonate buffer pH 9.2 was spiked with ^125I-IgG so that the final concentration of labeled IgG and cold IgG in the test solution was 10 μg/mL.
Aliquots of 0.1 milliliters of the protein solution were placed in quadruplicate in the wells of 8-well strips removed from the test microtiter plates. The wells were incubated overnight at 4° C. with shaking. The supernatants were removed from the wells, followed by three washes with 0.2 mL of PBS. The wells were then dried and individually counted to determine “total” IgG binding. After determining “total” binding, the wells were incubated for two hours in 0.2 mL of PBS-Tween (0.05%) at room temperature with shaking. The supernatants were removed from the wells followed by three washes with 0.2 mL of PBS. The wells were dried and individually counted to determine “tight” IgG binding.
Untreated high binding and medium binding plates were used as controls. A comparative experiment was also performed in which a BSA protein coating was used in place of a surfactant coating. The BSA was preabsorbed onto the walls of the wells and then washed to remove excess material. Testing was then performed using the radiolabeled IgG solution as described above.
Radiolabel measurements were performed in a double blind study at BioMolecular Assays (Woburn, Mass.). IgG binding values per microwell were converted to ng/cm^2 values using a surface area of 0.94 cm^2 for a 0.1 mL volume.

IgG [4] = experiment: IgG/Au staining of coated polystyrene, type of endgroups
Protocol: Except where indicated, the non-ionic surfactants were applied to the hydrophobic surfaces being tested as a 0.1% (weight/volume) solution in isopropanol. A sufficient amount of coating solution was used to cover the surface being testing with a thin layer of the solution (e.g., 25 μl of the solution per well for a standard 24-well plate). In some cases, the solution was applied to surface by spraying; in others, it was poured onto the surface (into the well). Except where indicated, coated samples were either dried at 70° C. for 30 minutes in an air circulated oven or dried at room temperature overnight to evaporate the isopropanol. Protein binding was determined in some examples using a colloidal gold straining procedure. In accordance with this procedure, colloidal gold becomes electrostatically attached to bound protein and is detected by measuring absorbance at 550 nanometers. Bio-Rad Laboratories' Colloidal Gold Total Protein Stain was used for this purpose, with absorbance being measured with a Cambridge Technologies Plate Reader (No. 7520). The non-ionic surfactants listed in Table 6 were tested for their ability to produce a low binding surface using the techniques described in Materials and Methods. Polystyrene was used as the hydrophobic test surface and IgG/Au staining was used as the readout.

bound protein = experiment: Colloidal gold staining of bound protein after MDCK culture in media containing 5% FBS, visual; conditions: colloidal gold after cell culture, visual observation
Protocol: The procedures used were as follows. Polystyrene 24-well plates were coated with the non-ionic surfactants listed in Table 5 in accordance with the procedures described in Materials and Methods. Uncoated plates were used as a control. For comparison, plates with a covalently attached acrylamide coating (Corning Costar Catalog #2500) and with a stearic acid coating were also tested. The stearic acid coating was applied in the same manner as the non-ionic surfactants again using a 0.1% (w/v) solution.
The plates were gamma sterilized at 1.5 Mrad and then inoculated with 5.6×10^4 MDCK […] per well in 1 ml of complete media containing 5% FBS (Fetal Bovine Serum). Incubation was carried out at 37° C. in a 5% CO2 atmosphere for two days. The plates were fixed and stained, and cell attachment was noted. Following this, the wells were stained using the colloidal gold technique to detect bound protein. Only visual observations were made.

| Compound | % Reduction in Protein Binding (HRP-Goat A'Mouse IgG) | IgG Protein Binding Absorbance (550 nm) (Horse IgG) | Absorbance (550 nm) pH = 9.2 [1] | Absorbance (550 nm) pH = 7.4 [1] | Absorbance (550 nm) pH = 4.6 [1] | Absorbance (550 nm) Initial (IgG [2]) | Absorbance (550 nm) 1 Time 1 hr 23° C. (IgG [2]) | Absorbance (550 nm) 1 Time 24 hr 23° C. (IgG [2]) | Absorbance (550 nm) 1 Time 24 hr 37° C. (IgG [2]) | Absorbance (550 nm) 1 Time 24 hr 70° C. (IgG [2]) | Absorbance (550 nm) 6 Times 30 min each 23° C. (IgG [2]) | Bound Protein Absorbance (550 nm) BSA (BSA) | Bound Protein Absorbance (550 nm) FBS (Fetal Bovine Serum (FBS)) | Total IgG binding, Non-Sterilized [3] | Tight IgG binding, Non-Sterilized [3] | Bound Protein Absorbance at 550 nm (IgG [4]) | Visual Color Upon Protein Staining (bound protein) | Total IgG binding, Sterilized [3] | Tight IgG binding, Sterilized [3] |
| --- | --- | --- | --- | --- | --- | --- | --- | --- | --- | --- | --- | --- | --- | --- | --- | --- | --- | --- | --- |
| SORBITOL MONO-STEARATE | 83.1* % | 0.00 | 0.00 | 0.00 | 0.00 | 0.00 | 0.00 | 0.00 | 0.00 | 0.00 | 0.00 | 0.000 | 0.000 |  |  |  |  |  |  |
| BSA Protein: BSA protein coating preabsorbed onto the wells, used in place of a surfactant coating [reference compound] |  |  |  |  |  |  |  |  |  |  |  |  |  | 594 ng/cm^2 | 173 ng/cm^2 |  |  |  |  |
| PEO(600) DI-STEARATE |  |  |  |  |  |  |  |  |  |  |  |  |  |  |  | 0.10 |  |  |  |
| CCCCCCCCCCCCCCCCCC(=O)O [STEARIC ACID, reference compound] |  |  |  |  |  |  |  |  |  |  |  |  |  |  |  |  | Very dark |  |  |
| SORBITOL MONO-LAURATE |  | 0.00 | 0.00 | 0.00 | 0.00 | 0.00 | 0.00 | 0.00 | 0.00 | 0.00-0.02 | 0.02-0.06 |  |  |  |  |  |  |  |  |
| CCCCCCCCCCCCCCCCOCCOCCO [PEO(2) CETYL ETHER] | 99.9% | 0.00 | 0.00 | 0.00 | 0.00 |  |  |  |  |  |  |  |  | 18 ng/cm^2 | 11 ng/cm^2 | 0.00 | None | 54 ng/cm^2 | 25 ng/cm^2 |
| PEO(4) SORBITOL MONO-LAURATE | 99.8% | 0.00 |  |  |  | 0.00 | 0.09 | 0.10 | 0.10 | 0.10 | 0.10 | 0.060 | 0.056 | 4 ng/cm^2 | 2 ng/cm^2 | 0.00 |  | 5 ng/cm^2 | 3 ng/cm^2 |

— US7776572B2, “Method for reducing loss of enzyme activity during storage” (Corning Incorporated, priority 1996, dated 2010)
